Test results from publication PMC4861933, “Structural and biochemical characterisation of Archaeoglobus fulgidus esterase reveals a bound CoA molecule in the vicinity of the active site” (Scientific Reports, 2016).

Assays:
AF-Est2 [1] = molecular target: T1, AF-Est2 (Archaeoglobus fulgidus, UniProt O28735); test: X-ray crystal structure, […] Å; format: binding; conditions: co-purified from expression host, not added; full occupancy; groove near active site, pantetheine in alcohol pocket
T1 construct: gene AF_1537; full-length, no stop codon, C-terminal 6xHis tag (pET24d, plasmid pWUR365), E. coli BL21-CodonPlus(DE3)-RIPL; tag kept

AF-Est2 [2] = molecular target: T1, AF-Est2; test: p-nitrophenol release at […] nm, microplate, Michaelis-Menten fit; format: biochemical; conditions: 50 mM Tris-HCl pH 7.5, 30 °C; enzyme carries co-purified CoA
AF-Est2 [3] = molecular target: T1, AF-Est2; test: phenol red pH-indicator assay at […] nm, Michaelis-Menten fit; format: biochemical; conditions: 1 mM HEPES pH 8.0; kcat is that at 70 °C (one KM printed for 70, 50 and 30 °C)

T1 sequence (O28735 entry or part of it): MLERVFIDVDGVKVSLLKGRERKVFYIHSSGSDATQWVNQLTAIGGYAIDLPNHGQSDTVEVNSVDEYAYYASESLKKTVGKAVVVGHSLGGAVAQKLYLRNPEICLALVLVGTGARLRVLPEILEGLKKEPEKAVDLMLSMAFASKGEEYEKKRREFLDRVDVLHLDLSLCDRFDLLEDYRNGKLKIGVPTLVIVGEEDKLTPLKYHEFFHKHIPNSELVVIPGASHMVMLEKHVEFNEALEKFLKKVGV

Q: With CC(C)(COP(=O)(O)OP(=O)(O)OC[C@H]1O[C@@H](n2cnc3c(N)ncnc32)[C@H](O)[C@@H]1OP(=O)(O)O)[C@@H](O)C(=O)NCCC(=O)NCCS [CoA] as the compound, how does the “X-ray crystal structure, 1.4 Å” value (AF-Est2 [1]) read?
A: confirmed the full occupancy of this CoA ligand in the AF-Est2 structure

Q: With CC(=O)Oc1ccc([N+](=O)[O-])cc1 [C2, pNP-acetate] as the compound, how does the Km (AF-Est2 [2]) read?
A: 620 ± 10 µM

Q: Which Km (AF-Est2 [2]) does the source give for CCCC(=O)Oc1ccc([N+](=O)[O-])cc1 [C4, pNP-butyrate] here?
A: 92 ± 3 µM

Q: For CCCCCCCC(=O)Oc1ccc([N+](=O)[O-])cc1 [C8, pNP-caprylate], which Km (AF-Est2 [2]) is on record?
A: 120 ± 10 µM

Q: How did the Km (AF-Est2 [3]) turn out when COC(=O)c1ccc(C)cc1 [methyl p-toluate] was run?
A: 1500 ± 100 µM

Q: With CCCCC(=O)Oc1ccc([N+](=O)[O-])cc1 [C5, pNP-valerate] as the compound, how does the Km (AF-Est2 [2]) read?
A: 19 ± 1 µM

Q: CCC(=O)Oc1ccc([N+](=O)[O-])cc1 [C3, pNP-propionate] was tested. Which Km (AF-Est2 [2]) did it give?
A: 254 ± 8 µM
